In patent publication US20140329854A1, “NOVEL HETEROCYCLIC COMPOUNDS USEFUL IN SIRTUIN BINDING AND MODULATION” (SMB Innovation, priority 2011, published 2014):
Where two headings read alike, the source gives them in different places.

Columns and labels:
[1] = Solubility in DMSO stock solution; details: solubility in DMSO before further dilution with water to 1% DMSO
SIRT1 = biological target: T1, SIRT1 (Homo sapiens, UniProt Q96EB6); assay: CISBIO HTRF SIRT1 assay of SIRT1 peptide deacetylation, modified by excluding NAD+; format: biochemical; details: for Modulation of SIRT1 deacetylating activity (in words): dose response, FIGS. 1-5
T1 construct: purchased Cisbio Bioassays
T1 sequence (Q96EB6 1-747): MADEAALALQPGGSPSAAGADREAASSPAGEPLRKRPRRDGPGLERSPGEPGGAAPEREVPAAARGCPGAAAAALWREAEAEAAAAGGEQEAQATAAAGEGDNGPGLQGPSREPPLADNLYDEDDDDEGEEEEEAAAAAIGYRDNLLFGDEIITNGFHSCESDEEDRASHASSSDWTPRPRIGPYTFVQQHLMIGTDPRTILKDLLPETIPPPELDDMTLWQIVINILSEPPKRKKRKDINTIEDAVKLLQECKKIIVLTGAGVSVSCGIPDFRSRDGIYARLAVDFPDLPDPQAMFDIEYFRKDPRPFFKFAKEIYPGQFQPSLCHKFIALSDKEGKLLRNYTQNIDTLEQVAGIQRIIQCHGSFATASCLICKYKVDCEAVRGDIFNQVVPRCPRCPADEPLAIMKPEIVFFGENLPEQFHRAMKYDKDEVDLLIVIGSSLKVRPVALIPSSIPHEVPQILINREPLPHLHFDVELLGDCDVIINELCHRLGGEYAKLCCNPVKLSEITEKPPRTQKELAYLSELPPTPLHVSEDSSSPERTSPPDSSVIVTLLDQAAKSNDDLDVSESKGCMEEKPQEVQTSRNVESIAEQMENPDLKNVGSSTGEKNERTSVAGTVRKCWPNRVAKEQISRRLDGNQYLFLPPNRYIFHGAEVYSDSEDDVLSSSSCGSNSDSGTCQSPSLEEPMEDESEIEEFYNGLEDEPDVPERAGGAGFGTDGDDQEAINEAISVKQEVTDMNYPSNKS
Method: Generally, the CISBIO HTRF® fluorescence enzyme titration assay (Cisbio Bioassays, Cisbio, 135 South Road, Bedford, Mass. 01730, USA) has provided information on inhibition and/or activation of SIRT1 deacetylation of a substrate peptide d2 containing a single acetylated lysine residue and a fluorescence probe/quencher. IC50 and AC50 values have been obtained. The assay was performed in microtiter wells and involved an enzymatic step, wherein 2 μL of the substrate peptide (6 nM) is incubated with 2 μL of SIRT1 enzyme (2.5 ng) and 2 μL of compound solution in DMSO and water. Reaction with anti-acetyl cryptate produces a FRET signal giving maximum signal when no SIRT1 reaction can be detected. The detection step involves quantification of the deacetylation process using an anti-acetyl MAb labeled with Eu^3+ cryptate. The assay was modified by excluding the NAD+ cofactor and using nicotinamide as inhibition control and the compound SRT1720 as activation control. SRT 1720 is described as a SIRT1 activating compound in Pillarisetti, S. (2008).
Protocol for inhibition/activation assay:
After adding all enzymatic step ingredients the mixture is incubated at room temperature at 30 to 60 min. Then the detection reactant is added and incubated at room temperature for 5 hours and on to produce a signal. The fluorescence readout is given as percentage of signal produced with no enzyme reaction.
The cryptate is excited at 337 nm and the fluorescence is measured at 590 nm (cryptate emission wavelength) and 665 nm (d2 emission wavelength). A ratio is calculated (665/590 nm) for each well.
The figures show percentage fluorescence as a function of Log C (log of compound concentration in μM).

rat hepatocytes = assay: Metabolic stability in rat hepatocytes; format: in vitro ADME; details: for % Qh (rat): CLh as % of hepatic blood flow; for % Qh (rat) / rat CLh: rat Qh = 55 mL/min/kg; for rat CLh: hepatic clearance from CLint by well-stirred equation; for rat CLint: rat hepatocytes, hepatic intrinsic clearance
Method: (§1) Stability of the six compounds in the presence of a drug metabolizing system such as human and rat hepatocytes was measured. Data were reported from the CRO in the format of hepatic intrinsic clearance (CLint) in mL/min/kg. These CLint data were converted using the well-stirred equation
(§2) to a whole body clearance (CLh, hepatic clearance), which is more directly physiologically interpreted (Qh, hepatic blood flow rate, mL/min/kg).

human hepatocytes = assay: Metabolic stability in human hepatocytes; format: in vitro ADME; details: for % Qh (human): CLh as % of hepatic blood flow; for % Qh (human) / hu CLh: human Qh = 21 mL/min/kg; for hu CLh: hepatic clearance from CLint by well-stirred equation; for hu CLint: human hepatocytes, hepatic intrinsic clearance
Method: as §1, §2

MDCK-MDR1 cells = test system: MDCK-MDR1 cells
Excerpt: MDR1 is the nomenclature for the major efflux transporter P-glycoprotein (P-gp), which is expressed at important anatomical barriers such as blood-brain, small intestine, and tumor cells. The MDCK-MDR model is a polarized cell model over expressing P-gp (i.e. P-gp is expressed on the Apical, or gut lumen, side of the cell) that is capable of actively effluxing small molecule substrates in the B to A direction. […] The compounds were run bidirectionally (Compound added to apical side and flux measured of compound appearing on the basolateral, or blood, side; compound added on basolateral side and flux of compound to apical side measured).

[2] = Measured partition coefficients (MlogD7.4, logP11); format: physicochemical; details: measured partition coefficient at pH 7.4
Method: Physical properties tPSA and ClogP (calculated lipophilicity octanol/water) were calculated using ChemDraw. Additionally, M log D7.4 (measured partition coefficient at pH 7.4) and log P11 (measured partition coefficient at pH 11) were measured, and all data are shown in Table 7.

[3] = test system: CYP1A2, 2C9, 2C19, 2D6, and 3A4; details: microsomes
[4] = test system: human and rat hepatocytes; assay: Stability in cryopreserved hepatocytes (FIG. 7), verbal summary; format: in vitro ADME; details: 90 minutes
Method: as §1

[5] = test system: CYP1A2, CYP2C9, CYP2C19, CYP2D6, CYP3A4; assay: CYP inhibition in human liver microsomes
[6] = SIRT1 activation, no NAD+ cofactor, average n = 3, read-out: AC50 in μM, average, n = 3
[7] = SIRT1 activation, no NAD+ cofactor, single experiment of FIGS. 1-4, read-out: AC50 in μM, n = 1
[8] = average AC50 values, n = 6, read-out: AC50

NC(=O)c1ccc(C(=O)Nc2ccccc2O)nc1 [Compound 2, 2-N(2-hydroxyphenyl)pyridine-2,5-dicarboxamide]
Concentration of compound in DMSO stock solution [1]: 200000 µM
AC50 (SIRT1; [6]): 348 µM
AC50 (SIRT1; [7]): 316 µM
Modulation of SIRT1 deacetylating activity (in words) (SIRT1): clear activation

NC(=O)c1ccc(C(=O)Nc2ccc(O)c3ccccc23)nc1 [Compound 4, 2-N(4-hydroxy-1-naphthyl)pyridine-2,5-dicarboxamide]
Concentration of compound in DMSO stock solution [1]: 20000 µM

NC(=O)c1ccc(C(=O)Nc2cccc3c(O)cccc23)nc1 [Compound 5, 2-N(5-hydroxy-1-naphthyl)pyridine-2,5-dicarboxamide]
Concentration of compound in DMSO stock solution [1]: 20000 µM

NC(=O)c1ccc(C(=O)Nc2cccc3cc(O)ccc23)nc1 [Compound 6, 2-N(6-hydroxy-1-naphthyl)pyridine-2,5-dicarboxamide]
Concentration of compound in DMSO stock solution [1]: 100000 µM

CCOc1ccc2ccc(=O)oc2c1 [Compound 7EC, reference compound]
% Qh (rat) (rat hepatocytes): 66.0%
rat CLh (rat hepatocytes): 36.3 mL/min/kg
rat CLint (rat hepatocytes): 107 mL/min/kg
% Qh (human) (human hepatocytes): 82.5%
hu CLh (human hepatocytes): 17.3 mL/min/kg
hu CLint (human hepatocytes): 99 mL/min/kg

NC(=O)c1ccc(C(=O)Nc2ccc(O)cc2O)cn1 [Compound 9, 5-N(2,4-dihydroxyphenyl)pyridine-2,5-dicarboxamide]
Concentration of compound in DMSO stock solution [1]: 200000 µM
% Qh (rat) (rat hepatocytes): 21.4%
rat CLh (rat hepatocytes): 11.8 mL/min/kg
rat CLint (rat hepatocytes): 15 mL/min/kg
Cell permeability (in words) (MDCK-MDR1 cells): moderate cell permeability
P-gp mediated efflux (in words) (MDCK-MDR1 cells): no P-gp mediated efflux
% Qh (human) (human hepatocytes): 36.4%
hu CLh (human hepatocytes): 7.6 mL/min/kg
hu CLint (human hepatocytes): 12 mL/min/kg
MlogD7.4 [2]: 0.3
AC50 (SIRT1; [7]): 112 µM
Modulation of SIRT1 deacetylating activity (in words) (SIRT1): clear activation
IC50 [3]: > 5 µM
Clearance in hepatocytes (in words) [4]: relatively low clearance
Stability in hepatocytes (in words) [4]: good stability

NC(=O)c1ccc(C(=O)Nc2cccc3c(O)cccc23)cn1 [Compound 10, 5-N(5-hydroxy-1-naphthyl)pyridine-2,5-dicarboxamide]
Concentration of compound in DMSO stock solution [1]: 20000 µM

NC(=O)c1ccc(C(=O)Nc2ccc(O)c3ccccc23)cn1 [Compound 11, 5-N(4-hydroxy-1-naphthyl)pyridine-2,5-dicarboxamide]
Concentration of compound in DMSO stock solution [1]: 20000 µM
% Qh (rat) (rat hepatocytes): 70.7%
rat CLh (rat hepatocytes): 38.9 mL/min/kg
rat CLint (rat hepatocytes): 133 mL/min/kg
Cell permeability (in words) (MDCK-MDR1 cells): moderate cell permeability
P-gp mediated efflux (in words) (MDCK-MDR1 cells): no P-gp mediated efflux
% Qh (human) (human hepatocytes): 60.4%
hu CLh (human hepatocytes): 12.7 mL/min/kg
hu CLint (human hepatocytes): 32 mL/min/kg
MlogD7.4 [2]: 1.6
AC50 (SIRT1; [6]): 114 µM
AC50 (SIRT1; [7]): 3.3 µM
Modulation of SIRT1 deacetylating activity (in words) (SIRT1): clear activation
IC50 [3]: > 5 µM
Clearance in hepatocytes (in words) [4]: relatively low clearance
Stability in hepatocytes (in words) [4]: good stability

NC(=O)c1ccc(C(=O)Nc2cccc3cc(O)ccc23)cn1 [Compound 12, 5-N(6-hydroxy-1-naphthyl)pyridine-2,5-dicarboxamide]
Concentration of compound in DMSO stock solution [1]: 20000 µM

NC(=O)c1cccc(C(=O)Nc2ccc(O)cc2O)n1 [Compound 13, 2-N(2,4-dihydroxyphenyl)pyridine-2,6-dicarboxamide]
Concentration of compound in DMSO stock solution [1]: 20000 µM
AC50 (SIRT1; [6]): 647 µM
AC50 (SIRT1; [7]): 105 µM
Modulation of SIRT1 deacetylating activity (in words) (SIRT1): clear activation

NC(=O)c1ccc2cc(C(=O)Nc3ccc(O)cc3)ccc2n1 [Compound 14, 6-N(4-hydroxyphenyl)quinolin-2,6-dicarboxamide]
Concentration of compound in DMSO stock solution [1]: 200000 µM

NC(=O)c1ccc2cc(C(=O)Nc3ccccc3O)ccc2n1 [Compound 15, 6-N(2-hydroxyphenyl)quinolin-2,6-dicarboxamide]
Concentration of compound in DMSO stock solution [1]: 10000 µM

NC(=O)c1cc(C(=O)Nc2ccc(O)cc2)c[nH]1 [Compound 16, 4-N(4-hydroxyphenyl)pyrrol-2,4-dicarboxamide]
Concentration of compound in DMSO stock solution [1]: 200000 µM

NC(=O)c1cc(C(=O)Nc2ccccc2O)c[nH]1 [Compound 17, 4-N(2-hydroxyphenyl)pyrrol-2,4-dicarboxamide]
Concentration of compound in DMSO stock solution [1]: 200000 µM
IC50 (SIRT1; SIRT1 inhibition, no NAD+ cofactor, n = 1, FIG. 5): 0.5 µM
Modulation of SIRT1 deacetylating activity (in words) (SIRT1): clear inhibition

NC(=O)c1ccc(C(=O)Nc2cc3ccccc3cc2O)nc1 [Compound 18, 2-N(3-hydroxy-2-naphthyl)pyridine-2,5-dicarboxamide]
AC50 (SIRT1; [8]): 116 µM

NC(=O)c1ccc(C(=O)Nc2ccc3ccccc3c2O)nc1 [Compound 19, 2-N(1-hydroxy-2-naphthyl)pyridine-2,5-dicarboxamide]
IC50 [5]: > 5 µM
AC50 (SIRT1; [8]): 31.6 µM

NC(=O)c1ccc(C(=O)Nc2cc(Cl)ccc2O)nc1 [Compound 23, 2-N(2-hydroxy-5-chloro-phenyl)pyridine-2,5-dicarboxamide]
AC50 (SIRT1; [8]): > 200 µM

COc1cccc(NC(=O)c2ccc(C(N)=O)cn2)c1O [Compound 24, 2-N(2-hydroxy-3-methoxy-phenyl)pyridine-2,5-dicarboxamide]
IC50 [3]: > 5 µM

COc1cc2ccccc2c(NC(=O)c2ccc(C(N)=O)cn2)c1O [Compound 28, 2-N(2-hydroxy-3-methoxy-1-naphthyl)pyridine-2,5-dicarboxamide]
AC50 (SIRT1; [8]): 175 µM

NC(=O)c1ccc(C(=O)Nc2c(O)ccc3cc(Cl)ccc23)nc1 [Compound 29, 2-N(2-hydroxy-6-chloro-1-naphthyl)pyridine-2,5-dicarboxamide]
IC50 [5]: > 5 µM
AC50 (SIRT1; [8]): 113 µM
